Values of other authors as cited in US12673064B2, “Biodegradable drug-polymer conjugate” (POLYACTIVA PTY LTD, priority 2019, dated 2026).

Assays:
[1] = 0.002% dosage, week 1

In the case of CC(C)OC(=O)CNc1cccc(CN(Cc2ccc(-n3cccn3)cc2)S(=O)(=O)c2cccnc2)n1 [Omidenepag isopropyl], the “effectiveness versus latanoprost 0.005%” value [1] is given as “more effective than latanoprost 0.005%”.
For CCCCC[C@H](O)/C=C/[C@H]1[C@H](O)CC(=O)[C@@H]1SCCCSCC(=O)O [3,7-dithia-PGE1], the “IOP and total outflow resistance” value (monkeys) is given as “reduced” and the “uveoscleral outflow or aqueous flow” value (monkeys) is given as “without affecting”.
